The source of these data is publication PMC4707132 (Journal of medicinal chemistry, 2015).

Assay [1] addresses T1, Mcl-1 (Homo sapiens, UniProt Q07820). The experiment in a line: fluorescence polarization competition assay. The assay is classed as binding. (Polarisation of emitted light reports the rotation of a fluorescent probe.)
Assay [2] has as its target T1, Mcl-1. Kind of assay: bio-layer interferometry. The assay is classed as binding. The note with it: label-free BLI. On the technique in general: Biolayer interferometry detects binding as a change in optical thickness at a sensor tip.
Assay [3] has as its target T1, Mcl-1. The experiment in a line: HSQC chemical shift mapping. The assay is classed as binding.
Assay [4] has as its target T1, Mcl-1. The experiment in a line: surface plasmon resonance. The assay is classed as binding. In general terms: Surface plasmon resonance follows binding to a sensor surface in real time, without labels.
The next assay can be described thus: in vitro cellular assay. The assay is classed as cell-based.

T1 sequence (Q07820 whole entry): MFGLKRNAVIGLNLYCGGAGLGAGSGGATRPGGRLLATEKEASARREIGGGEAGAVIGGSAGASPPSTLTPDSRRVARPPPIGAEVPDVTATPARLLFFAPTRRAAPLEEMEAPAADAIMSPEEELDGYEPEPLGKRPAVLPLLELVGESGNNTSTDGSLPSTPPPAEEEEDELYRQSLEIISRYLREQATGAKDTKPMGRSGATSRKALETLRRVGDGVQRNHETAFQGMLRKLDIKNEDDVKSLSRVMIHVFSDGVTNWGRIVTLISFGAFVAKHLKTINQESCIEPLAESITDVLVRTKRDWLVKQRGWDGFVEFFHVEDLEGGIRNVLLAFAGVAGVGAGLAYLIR

Turning to `COc1ccc(/C=C/C(=O)c2cc(OC)c(OC)c(OC)c2O)cc1` [Compound D12], the “potency relative to M0” value on Mcl-1 [1] is “less potent than M0”.

For the molecule `COc1cc(C(=O)/C=C/c2ccc([N+](=O)[O-])cc2)c(O)c(OC)c1OC` [Compound D14], the “potency relative to M0” value on Mcl-1 [1] was “less potent than M0”.

On to `COc1ccc(C(=O)/C=C/c2cc(Cl)c(O)c(OC)c2)cc1` [Compound D4], for which the “potency relative to M0” value at Mcl-1 [1] is “potency exceeding that of M0”.

Consider `c1cc2c(cc1[C@H]1OC[C@H]3[C@H]1CO[C@H]3c1ccc3c(c1)OCO3)OCO2` [Compound M7], for which the “direct binding to Mcl-1” value at Mcl-1 [2] is on record as “confirmed the activity”.

On to `COc1ccc(C(=O)/C=C/c2cc(F)c(O)c(Cl)c2)cc1` [Compound D3], for which, at Mcl-1 [1], the “activity relative to D1” value is “reduced activity” and the “potency relative to M0” value was “potency exceeding that of M0”.

`COc1cc(C(=O)/C=C/c2ccc(O)cc2)c(O)c(OC)c1OC` [Compound D7]: the “potency relative to M0” value on Mcl-1 [1] is listed as “less potent than M0”.

Take `COc1cc(C(=O)/C=C/c2ccc(C(F)(F)F)cc2)c(O)c(OC)c1OC` [Compound D13]: the “potency relative to M0” value on Mcl-1 [1] is given as “less potent than M0”.

As to `COc1ccc(C(=O)/C=C/c2ccc(O)c(F)c2)c(OC)c1OC` [Compound D5], on Mcl-1 [1], the “activity relative to D1” value is reported as “reduced activity” and the “potency relative to M0” value is reported as “very similar inhibition constant as M0”.

Take `COc1cc(/C=C/C(=O)c2ccc(OC)c(OC)c2OC)cc(Cl)c1O` [Compound D1]: the “potency of Mcl-1 inhibition relative to M0” value at Mcl-1 [1] is recorded as “about 7 fold”.

`COc1cc(O)c(C(=O)/C=C/c2ccc(O)c(OC)c2)c(OC)c1` [Compound M0, 2’,4-dihydroxy-3,4’,6’-trimethoxychalcone]: the HSQC spectrum entry at Mcl-1 [3] is on record as “small number of distinct chemical shift differences”. In addition, on Mcl-1 [4], the SPR response result is on record as “did not exhibit super-stoichiometric behavior”. The “direct binding to Mcl-1” value on Mcl-1 [2] is recorded as “confirmed the activity”.

For `COc1ccc(C(=O)/C=C/c2cc(F)c(O)c(Cl)c2)c(OC)c1OC` [Compound D2], the “biological effect in cells” value in the assay “in vitro cellular assay” is “does not exert the desired biological effect”. The “potency of Mcl-1 inhibition relative to M0” value on Mcl-1 [1] is on record as “about 7 fold”.

With `C[C@@]12CC[C@@H]3[C@H](CCC4=CC(=O)CC[C@H]43)[C@H]1CC[C@H]2OC1(O)C(=O)c2ccccc2C1=O` [Compound M5], the “direct binding to Mcl-1” value at Mcl-1 [2] is recorded as “confirmed the activity”.

On Mcl-1 [1], `Cc1c(/C=N/N2C=Nc3c([nH]c4ccccc34)C2)c(=O)oc2c3c4c(cc12)CCCN4CCC3` [Compound M1] gave a Ki of 1200 nM. For the same molecule, at Mcl-1 [2], the “direct binding to Mcl-1” value is on record as “confirmed the activity”.

The Ki is the dissociation constant of the complex between target and ligand, obtained from inhibition or displacement. Low readings indicate tighter binding, high ones weaker binding.
